Measured values reported in patent publication US20050059725A1, “Methods of using and preparing thiolutin dioxide” (Aventis Pharma Deutschland GmbH, priority 2001, published 2005).

Tests used:
Assay type in all cases: biochemical
[1] = test system: angiotensin converting enzymes; assay: Selectivity against other zinc-containing metalloproteases: angiotensin converting enzymes; settings: selectivity statement
neurolysin = neurolysin (Homo sapiens, UniProt Q9BYT8); assay: Neurolysin inhibition assay (fluorogenic substrate, 384-well); settings: substrate Mcc-Pro-Leu-Gly-D-Lys(Dnp)-OH 4 μM, 30° C., 30 min, Tris buffer pH 7.5
Procedure: An assay was performed on a CyBio pipetting system in a 384-well plate format in a final assay volume of 16 μl. In brief, 4 μl of appropriately diluted microbial extracts (dilution in 50 mM Tris buffer, pH 7.5) were distributed in wells of test plates (Greiner, white 384-small volume well plates). Thereafter, 4 μl of neurolysin (pre-diluted 1:5, 360 ng of protein) were added to each well. After a 10 minute pre-incubation of the samples and the enzyme at room temperature, the reaction was initiated by the addition of 8 μl of substrate (Mcc-Pro-Leu-Gly-D-Lys (Dnp)—OH, CALBIOCHEM) in Tris buffer. The final test concentration of the substrate was 4 μM.
After pipetting, the plates were immediately placed in a fluorometer (SpectraFluorplus, SLT) and the initial amount of fluorescence was read (λex: 360 nm/λem405 nm). The reaction was then allowed to proceed at 30° C. for 30 min, and a final fluorescence reading was taken.
The data are first blank corrected. Then, after subtracting the values at the zero time point from the respective values after 30 min, sample inhibition activity was expressed as 100−(Net Intensity compound/Net Intensity control)×100(%)
Each test plate contained a reasonable number of positive controls and blanks (buffer instead of enzyme).

enkephalinase = enkephalinase (Homo sapiens, UniProt P08473); assay: Selectivity against other zinc-containing metalloproteases: enkephalinase; settings: selectivity statement
Chain of enkephalinase (P08473 whole entry, species assumed): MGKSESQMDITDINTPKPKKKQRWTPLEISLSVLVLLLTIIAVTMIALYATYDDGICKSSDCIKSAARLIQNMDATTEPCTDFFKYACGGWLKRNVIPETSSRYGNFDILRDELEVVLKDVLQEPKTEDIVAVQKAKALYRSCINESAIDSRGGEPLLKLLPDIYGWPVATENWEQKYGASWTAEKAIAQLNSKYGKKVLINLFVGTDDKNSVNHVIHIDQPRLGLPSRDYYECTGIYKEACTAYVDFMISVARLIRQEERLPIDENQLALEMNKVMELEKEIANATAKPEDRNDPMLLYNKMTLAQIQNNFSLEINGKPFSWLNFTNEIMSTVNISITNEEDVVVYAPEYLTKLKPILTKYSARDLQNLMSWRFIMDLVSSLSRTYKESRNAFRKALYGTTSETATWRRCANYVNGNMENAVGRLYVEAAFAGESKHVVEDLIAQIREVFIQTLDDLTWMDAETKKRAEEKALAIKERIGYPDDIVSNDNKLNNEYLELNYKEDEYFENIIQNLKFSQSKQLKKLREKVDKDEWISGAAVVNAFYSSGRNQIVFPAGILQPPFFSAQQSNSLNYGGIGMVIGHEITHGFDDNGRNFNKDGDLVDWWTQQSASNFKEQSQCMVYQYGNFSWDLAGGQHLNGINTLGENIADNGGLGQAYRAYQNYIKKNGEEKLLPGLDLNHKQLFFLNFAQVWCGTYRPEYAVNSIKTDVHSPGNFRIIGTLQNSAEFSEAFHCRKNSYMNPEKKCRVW

Chain of neurolysin (Q9BYT8 38-704): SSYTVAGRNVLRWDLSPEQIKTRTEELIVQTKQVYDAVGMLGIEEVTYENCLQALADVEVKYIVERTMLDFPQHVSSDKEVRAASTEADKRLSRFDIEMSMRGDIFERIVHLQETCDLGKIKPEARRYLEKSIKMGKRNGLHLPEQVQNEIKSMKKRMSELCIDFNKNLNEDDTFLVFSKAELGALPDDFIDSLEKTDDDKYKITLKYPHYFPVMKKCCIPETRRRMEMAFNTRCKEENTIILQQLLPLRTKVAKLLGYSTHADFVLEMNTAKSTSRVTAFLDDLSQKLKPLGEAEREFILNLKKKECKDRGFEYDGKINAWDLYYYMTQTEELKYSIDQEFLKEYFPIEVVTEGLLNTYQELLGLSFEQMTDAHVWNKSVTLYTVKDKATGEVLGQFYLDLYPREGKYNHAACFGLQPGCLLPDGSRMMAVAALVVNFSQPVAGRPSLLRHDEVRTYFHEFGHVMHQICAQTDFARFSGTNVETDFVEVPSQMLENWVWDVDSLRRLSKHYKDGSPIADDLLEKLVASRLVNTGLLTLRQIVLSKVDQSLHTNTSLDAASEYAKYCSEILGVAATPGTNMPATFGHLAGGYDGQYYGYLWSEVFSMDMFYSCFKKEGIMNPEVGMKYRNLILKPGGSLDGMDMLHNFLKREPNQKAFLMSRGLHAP

## CC(=O)NC1=C2SS(=O)(=O)C=C2N(C)C1=O [thiolutin dioxide]
[1]
  blocking of angiotensin converting enzymes: does not block
neurolysin
  IC50: 600 nM
enkephalinase
  blocking of enkephalinase: does not block
